The text below walks through data of ChEMBL document CHEMBL5727610, “Cardiac glycoside analogs and their use in methods for inhibition of viral infection” (2020).

For orientation: EC50 means the concentration needed to bring the measured effect to its halfway point.

The assay in a line: The inhibition of HCMV replication by digitoxin: The effect of digitoxin analogs on HCMV replication was tested. HFFs were infected with pp28-luciferase HCMV and treated with the compounds (Table 2, FIG. 2A). EC50, CC50 and selectivity index (SI) calculated as CC50/EC50 were determined for each compound. […] The compounds with the best SI were α-L rhamnose, α-L amicetose and mannose. Virus yield was determined for selected compounds (FIG. 2B), and a dose dependent effect on virus DNA yield was observed.

As for `CC1OC(OC2C(C)OC(OC3C(O)CC(O[C@H]4CC[C@@]5(C)[C@H](CC[C@@H]6[C@@H]5CC[C@]5(C)[C@@H](C7=CC(=O)OC7)CC[C@]65O)C4)OC3C)C(C)C2O)CC(OC2OC(C)[C@H](OC3OC(C)[C@@H](OC4OC(C)[C@@H](O)C[C@@H]4O)C[C@@H]3O)C[C@@H]2O)C1C` (some centres not stated), the EC50 is 113 nM.
For the compound `CC1OC(OC2C(O)CC(OC3C(O)CC(O[C@H]4CC[C@@]5(C)[C@H](CC[C@@H]6[C@@H]5CC[C@]5(C)[C@@H](C7=CC(=O)OC7)CC[C@]65O)C4)OC3C)OC2C)CC(OC2OC(CO)[C@H](O)C(O)[C@@H]2O)C1C` (some centres not stated), the half-maximal effective concentration (EC50) is 7.31 nM.
As for `CC1OC(OC2C(C)OC(OC3C(O)CC(O[C@H]4CC[C@@]5(C)[C@H](CC[C@@H]6[C@@H]5CC[C@]5(C)[C@@H](C7=CC(=O)OC7)CC[C@]65O)C4)OC3C)C(C)C2O)CC(OC2OC(C)[C@@H](OC3OC(C)[C@H](OC4OC(C)[C@H](O)C(O)[C@H]4O)C(O)[C@H]3O)C(O)[C@H]2O)C1C` (some centres not stated), the figure is 322 nM.
Turning to `CC1OC(OC2C(O)CC(OC3C(O)CC(O[C@H]4CC[C@@]5(C)[C@H](CC[C@@H]6[C@@H]5CC[C@]5(C)[C@@H](C7=CC(=O)OC7)CC[C@]65O)C4)OC3C)OC2C)CC(OC2OC(C)[C@H](O)C(O)[C@@H]2O)C1C` (some centres not stated), the EC50 is 4.77 nM.
`CC1OC(OC2C(C)OC(OC3C(O)CC(O[C@H]4CC[C@@]5(C)[C@H](CC[C@@H]6[C@@H]5CC[C@]5(C)[C@@H](C7=CC(=O)OC7)CC[C@]65O)C4)OC3C)C(C)C2O)CC(OC2OC(C)[C@@H](OC3OC(C)[C@H](OC4OC(C)[C@H](O)C[C@H]4O)C[C@H]3O)C[C@H]2O)C1C` (some centres not stated): the EC50 was 2080 nM.
As for `CC1OC(OC2C(O)CC(OC3C(O)CC(O[C@H]4CC[C@@]5(C)[C@H](CC[C@@H]6[C@@H]5CC[C@]5(C)[C@@H](C7=CC(=O)OC7)CC[C@]65O)C4)OC3C)OC2C)CC(OC2OC(C)[C@H](OC3OC(C)[C@@H](O)C[C@@H]3O)C[C@@H]2O)C1C` (some centres not stated), the figure is 14.8 nM.
Consider `CC1OC(OC2C(O)CC(OC3C(O)CC(O[C@H]4CC[C@@]5(C)[C@H](CC[C@@H]6[C@@H]5CC[C@]5(C)[C@@H](C7=CC(=O)OC7)CC[C@]65O)C4)OC3C)OC2C)CC(OC2OC(C)[C@H](OC3OC(C)[C@@H](O)C(O)[C@@H]3O)C(O)[C@@H]2O)C1C` (some centres not stated), for which the EC50 was 36.7 nM.
`CC1OC(OC2C(C)OC(OC3C(O)CC(O[C@H]4CC[C@@]5(C)[C@H](CC[C@@H]6[C@@H]5CC[C@]5(C)[C@@H](C7=CC(=O)OC7)CC[C@]65O)C4)OC3C)C(C)C2O)CC(OC2OC(C)[C@H](OC3OC(C)[C@@H](OC4OC(C)[C@@H](O)C(O)[C@@H]4O)C(O)[C@@H]3O)C(O)[C@@H]2O)C1C` (some centres not stated): the EC50 was 233 nM.
With `CC1OC(OC2C(O)CC(OC3C(O)CC(O[C@H]4CC[C@@]5(C)[C@H](CC[C@@H]6[C@@H]5CC[C@]5(C)[C@@H](C7=CC(=O)OC7)CC[C@]65O)C4)OC3C)OC2C)CC(OC2OC(C)[C@@H](OC3OC(C)[C@H](O)C[C@H]3O)C[C@H]2O)C1C` (some centres not stated), the EC50 was 786 nM.
Turning to `CC1OC(OC2C(O)CC(OC3C(O)CC(O[C@H]4CC[C@@]5(C)[C@H](CC[C@@H]6[C@@H]5CC[C@]5(C)[C@@H](C7=CC(=O)OC7)CC[C@]65O)C4)OC3C)OC2C)CC(OC2OC(C)[C@@H](OC3OC(C)[C@H](O)C(O)[C@H]3O)C(O)[C@H]2O)C1C` (some centres not stated), the EC50 is 210 nM.
In the case of `CC1OC(OC2C(O)CC(OC3C(O)CC(O[C@H]4CC[C@@]5(C)[C@H](CC[C@@H]6[C@@H]5CC[C@]5(C)[C@@H](C7=CC(=O)OC7)CC[C@]65O)C4)OC3C)OC2C)CC(OC2OC(C)[C@@H](O)C(O)[C@H]2O)C1C` (some centres not stated), the EC50 is 26.6 nM.
Turning to `CC1OC(OC2C(O)CC(OC3C(O)CC(O[C@H]4CC[C@@]5(C)[C@H](CC[C@@H]6[C@@H]5CC[C@]5(C)[C@@H](C7=CC(=O)OC7)CC[C@]65O)C4)OC3C)OC2C)CC(OC2OC(C)[C@@H](O)C[C@H]2O)C1C` (some centres not stated), the EC50 is 37.5 nM.
